Measured values from patent publication US11344527B2, “Methods and compositions for treating cancer” (Sutter West Bay Hospitals, priority 2007, dated 2022).
Where two headings read alike, the source gives them in different places.

Experiments:
caspase 3, 7, 9 and PARP = assay: Caspase and PARP Western analysis, U251; assay type: cell-based, human; settings: U251, three days; Δ9-THC 1.7 μM and/or CBD 0.4 μM; FIG. 9
MDA-MB231 cells [1] = assay: Boyden chamber invasion assay, MDA-MB231; assay type: cell-based, human; settings: 0.1, 1.0 or 1.5 μM; FIG. 1A
Protocol: Invasion is an important step towards breast cancer cell metastasis. Therefore, the effects of several cannabinoids were tested on their ability to modulate the migratory and invasiveness activity of the most aggressive human breast cancer cell line, MDA-MB231, in a reconstituted basement membrane in a Boyden chamber.

U87 cells = assay: MTT cell proliferation assay, U87 GBM cells; assay type: cell-based, human; settings: Homo sapiens, U-87 MG, 168 h, seven day treatment, 95% confidence limits, read-out: IC50 antiproliferative, U87
Protocol: (§1) The human GBM cell lines used were SF126, U87 and U251. Cell lines were maintained at 37° C. and 5% CO2.
(§2) Treatment groups were divided into 1) no treatment (control), 2) Δ^9-THC alone, 3) CBD alone, 4) Δ^9-THC and CBD combined. Positive and negative aspects of constituent interaction were determined in this 2×2 design using 2-way analysis of variance as described by (Slinker, 1998). […] Significant differences were also determined using ANOVA where suitable. […] P values <0.05 defined statistical significance.

MDA-MB436 cells = assay: MTT cell proliferation assay, MDA-MB436; settings: Homo sapiens, MDA-MB-436, 72 h, read-out: IC50 antiproliferative, MDA-MB436
SF126 cells = assay: MTT cell proliferation assay, SF126 GBM cells; assay type: cell-based, human; settings: Homo sapiens, read-out: IC50 antiproliferative, SF126
Protocol: as §1, §2

U251 cells [2] = assay: Cell cycle analysis (PI staining, FACS), U251; assay type: cell-based, human; settings: Δ9-THC 1.7 μM and/or CBD 0.4 μM, FIG. 8
Protocol: U251 cells were grown in Petri dishes (100 mm×15 mm) and received drug treatments for 2 days. On the third day, the cells were harvested and centrifuged at 1200 rpm for 5 minutes. The pellet was washed 1× with PBS+1% BSA, and centrifuged again. The pellet was resuspended in 0.5 ml of 2% paraformaldehyde (diluted with PBS) and left to fix overnight at room temperature. The next day the cells were pelleted and resuspended in 0.5 ml 0.3% Triton in PBS and incubated for 5 minutes at room temperature. The cells were then washed 2 times with PBS+1% BSA. The cells were finally suspended in PBS (0.1% BSA) with 10 ug/ml Propidium Iodide and 100 μg/ml RNAse. The cells were incubated for 30 minutes at room temperature before being stored at 4 C. Cell cycle was measured using a FACS Calibur using Cell Quest Pro and Modfit software.

U251 cells [3] = assay: MTT cell proliferation assay, U251 GBM cells; assay type: cell-based, human; settings: Homo sapiens, U-251, 168 h, seven day treatment, 95% confidence limits, read-out: IC50 antiproliferative, U251
Protocol: as §1, §2

U251 cells [4] = assay: Boyden chamber invasion assay, U251; assay type: cell-based, human
MDA-MB231 cells [5] = assay: MTT cell proliferation assay, MDA-MB231; settings: Homo sapiens, MDA-MB-231, 72 h, read-out: IC50 antiproliferative, MDA-MB231
U251 cells [6] = assay: Apoptosis (annexin staining, FACS), U251; assay type: cell-based, human; settings: U251, three days
Protocol: Cells were grown in 6 well culture dishes and were treated with the appropriate compounds every 24 hours for three days. The cells were trypsinized, washed with PBS, and processed for labeling with fluorescein-tagged UTP nucleotide and PI by use of an Apo-Direct apoptosis kit obtained from Phoenix Flow Systems (San Diego, Calif.) and was used according to the manufacturer's protocol. The labeled cells were analyzed by flow cytometry. Cell Flow Cytometry in combination with PI and annexin staining was used to quantify the percentage of cells undergoing apoptosis in control and treatment groups. % control was calculated as annexin positive staining in treated cells/control cells×100. PI staining was used to distinguish necrotic cells from those undergoing apoptosis.

Id-1 = Id-1 protein expression by quantitative Western analysis, MDA-MB231; assay type: cell-based, human; settings: MDA-MB231 cells, 1.5 μM, two days, FIG. 1E
Source text: Proteins were separated by SDS/PAGE, blotted on Immobilon membrane, and probed with anti-Id-1 and the appropriate secondary antibody. Band intensity values were obtained directly from the blot using AlphaeaseFC software (San Leandro, Calif.) or from film using Image-J (NIH, MD). As a normalization control for loading, blots were stripped and re-probed with mouse alpha-tubulin (Abeam, Cambridge, Mass.).
The ability of CBD to regulate the expression of key genes that control breast cancer cell aggressiveness and invasiveness was determined A potential candidate protein that could mediate the effects of CBD on both phenotypes was the helix-loop-helix protein Id-1. […] The inhibitory effect of CBD on Id-1 expression occurred at concentrations as low as 100 nM. […] The CBD concentrations effective at inhibiting Id-1 expression correlated with those used to inhibit the proliferative and invasive phenotype of MDA-MB231 cells. Furthermore, the time period needed to observe the down-regulation of Id-1 protein in the presence of CBD correlated with the inhibitory effects of CBD on the aggressiveness and invasiveness of MDA-MB231 cells (FIG. 1, panel D).
In order to determine the SAR between cannabinoids and the inhibition of Id-1, MDA-MB231 cells were treated for two days with multiple cannabinoid compounds and Id-1 protein levels were assessed.

ERK, JNK, and p38 MAPK = assay: MAPK activity (pERK, ERK, JNK, p38) by Western analysis, U251; assay type: cell-based, human
Protocol: Cells cultured and treated in 6-well dishes were washed twice with cold PBS. Lysis buffer was added and cells lysed by freezing for 10 min at −70° C. and then thawing. Cell lysate was collected and the concentration was determined using Bradford reagent. Equal amounts of protein were heated to 90° C. in Laemmli sample buffer with β-mercaptoethanol, and loaded onto a precast SDS-PAGE gel (Bio-Rad Laboratories, Hercules, Calif.). Protein was transferred to an Immobilon membrane (Millipore, Billerica, Mass.) overnight at 2-4° C. Blots were then blocked with 5% nonfat dry milk in TBS+Tween for 1 h. Primary antibody from Millipore (rabbit anti-phospho-JNK, rabbit anti-phospho-p38, rabbit anti-phospho-ERK1/2 and rabbit anti-ERK1/2, 1 mcg/mL) in blocking buffer was then added for 1 h. The blots were then rinsed three times 10 min with TBS+Tween. Secondary antibody (Donkey Anti-Rabbit IgG, Jackson Immunoresearch, West Grove, Pa.) was then added. Blots were incubated for 45 min and then washed 4 times for 15 min each. The blots were developed with SuperSignal Femto (Pierce, Rockford, Ill.), and imaged on either a Fluorchem 8900 (Alpha Innotech, San Leandro, Calif.) or ECL Hyperfilm (Amersham-Pharmacia, Piscataway, N.J.). Band intensity values were obtained (after background subtraction) directly from the […] using AlphaeaseFC software (San Leandro, Calif.) or from film using Image-J (NIH, MD). As a normalization control for loading, blots were stripped and re-probed with mouse alpha-tubulin (Abcam, Cambridge, Mass.) and goat anti-mouse IgG (Jackson Immunoresearch) for the primary and secondary antibodies, respectively.
The regulation of ERK, JNK, and p38 MAPK activity plays a role in controlling cell growth and apoptosis. U251 cells were used to determine whether modulation of ERK, JNK, and p38 MAPK activity occurred.

For CCCCCc1cc(O)c2c(c1)OC(C)(C)C1CCC(C)=CC21 (stereo not drawn) [Δ^9-THC, tetrahydrocannabinol], the “caspase 3, 7, 9 and PARP activation” value (caspase 3, 7, 9 and PARP) was “Small increases in the activity of caspase 7, caspase 9 and PARP but not caspase 3”, the “invasion of MDA-MB231 cells” value (MDA-MB231 cells [1]) was “significantly reduced” and the IC50 (U87 cells) was 1600 nM. For the same compound, the IC50 (MDA-MB436 cells) was 2500 nM, the IC50 (SF126 cells; SF-126, 72 h, three day treatment, 95% confidence limits (Table 4)) was 2500 nM and the IC50 (SF126 cells; SF-126, 168 h, seven day treatment, 95% confidence limits) was 900 nM. The cell cycle distribution (U251 cells [2]) was “increases in the population of cells in G1 and G2/M phase and decreases in cells in S phase”, the IC50 (U251 cells [3]) was 1100 nM and the “invasiveness of U251 cells” value (U251 cells [4]; Boyden chamber, FIG. 10) was “effectively inhibited”. For the same compound, the IC50 (U251 cells [4]; Homo sapiens, U-251, limits 49-150, read-out: predicted IC50 to inhibit U251 cell invasiveness) was 85 nM, the IC50 (MDA-MB231 cells [5]) was 1200 nM and the “apoptosis in the presence of the CB2 antagonist SR144528” value (U251 cells [6]; 0.5 μM SR144528, combination 1.7/0.4 μM, 2.5 μM Δ9-THC or 2.0 μM CBD, FIG. 6) was “partially blocked”. The “apoptosis in the presence of α-tocopherol” value (U251 cells [6]; 20 μM α-tocopherol, combination 1.7/0.4 μM, 2.5 μM Δ9-THC or 2.0 μM CBD, FIG. 6) was “completely blocked”, the “apoptosis (annexin staining)” value (U251 cells [6]; Δ9-THC 1.7 μM and/or CBD 0.4 μM, FIG. 5) was “did not produce significant changes” and the “inhibition of Id-1 protein (structure activity relationship)” value (Id-1) was “No inhibition”. The “inhibition of Id-1 protein (structure activity relationship)” value (Id-1; listed as THC) was “no activity”, the “p-ERK, higher concentrations alone compared with the combination” value (ERK, JNK, and p38 MAPK; U251, three days, 2.5 μM Δ9-THC, 2.0 μM CBD, or 1.7 μM/0.4 μM combination, FIG. 6D) was “no effect” and the p-ERK (ERK, JNK, and p38 MAPK; U251, Δ9-THC 1.7 μM and/or CBD 0.4 μM, two days, FIG. 4) was “no changes”.
